Experiment [1] relates to DLD1 NRF2-WT. In words: TC50 cytotoxicity; higher = less toxic. As to conditions: 72 h; CellTox Green cytotoxicity. An outline of the steps:
(§1)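 TC50 and drug sensitivity score, a normalised area under the curve, were derived by logistic dose-response fits of cytotoxicity. The cells were an isogenic DLD1 colorectal cancer pair, NRF2 wild-type or CRISPR-edited, kept in DMEM with 10% FBS. Compounds were tested in 384-well plates at 5 concentrations across a 10,000-fold range for 72 h. Readings with CellTox Green on a Pherastar FS reader were normalised to vehicle wells and 100-μM positive-control wells.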

Experiment [2] relates to DLD1 NRF2-GOF. In words: TC50 cytotoxicity; higher = less toxic. The note with it: 72 h; CellTox Green cytotoxicity. An outline of the steps:
as §1

Experiment [3] has as its system DLD1 NRF2-WT. The note with it: 72 h; CellTiter-Glo viability. Summed up: (§2)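 DLD1 colorectal cancer cells, an isogenic pair either NRF2 wild-type or carrying a CRISPR gain-of-function, were cultured in DMEM with 10% FBS and treated in 384-well plates with library compounds at 5 concentrations across a 10,000-fold range. CellTiter-Glo viability was read on a Pherastar FS reader after 72 h and normalised to vehicle wells and 100-μM positive-control wells. Four-parameter logistic dose-response fits were applied. EC50 and drug sensitivity score, a normalised area under the curve, were taken from these fits.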

Experiment [4] deals with DLD1 NRF2-GOF. As to conditions: 72 h; CellTiter-Glo viability. An outline of the steps:
as §2
In general terms: In ATP-based viability assays light output follows the ATP content of the culture.

For experiment [5], the system named is DLD1 NRF2-WT. Nature of the experiment: drug sensitivity score (DSS) cytotoxicity (DSS score); higher = more toxic; extreme values may be limits of the assay. As to conditions: 72 h; CellTox Green cytotoxicity. An outline of the steps: as §1
Experiment [6] deals with DLD1 NRF2-GOF. The experiment is described as above. The note with it: 72 h; CellTox Green cytotoxicity. An outline of the steps: as §1
Experiment [7] relates to DLD1 NRF2-WT. In words: drug sensitivity score (DSS) viability (DSS score); higher = more sensitive; extreme values may be limits of the assay. As to conditions: 72 h; CellTiter-Glo viability. An outline of the steps:
as §2

The test system of experiment [8] is DLD1 NRF2-GOF. The experiment is described as above. As to conditions: 72 h; CellTiter-Glo viability. An outline of the steps:
as §2

These results are taken from the supplement of paper PMC7600603.

Molecules are shown by their SMILES. Where only a bound is given, the exact number is not on record here.

With `CCn1c(-c2nonc2N)nc2c(C#CC(C)(C)O)ncc(OC[C@H]3CCCNC3)c21`, the TC50 cytotoxicity with DLD1 NRF2-WT [1] and with DLD1 NRF2-GOF [2] was more than 10 µM throughout. The values for the EC50 viability with DLD1 NRF2-WT [3] and with DLD1 NRF2-GOF [4] were 1.5 µM and 2.87 µM, respectively. Moreover, the drug sensitivity score in the experiment on DLD1 NRF2-WT [5] was found to be 0; with DLD1 NRF2-GOF [6], 0; in the experiment with DLD1 NRF2-WT [7], 4.3; in the experiment on DLD1 NRF2-GOF [8], 2.4.

For `CC[C@H](Nc1ncnc2[nH]cnc12)c1nc2cccc(F)c2c(=O)n1-c1ccccc1` [Idelalisib], the TC50 cytotoxicity with DLD1 NRF2-WT [1] and in the experiment with DLD1 NRF2-GOF [2] was more than 10 µM throughout. Moreover, the EC50 viability in the experiment on DLD1 NRF2-WT [3] and with DLD1 NRF2-GOF [4] was more than 10 µM in each case. Besides, the drug sensitivity score in the experiment on DLD1 NRF2-WT [5] is 0; with DLD1 NRF2-GOF [6] it was 0; with DLD1 NRF2-WT [7] it was 1.6; in the experiment on DLD1 NRF2-GOF [8], 2.

As to `CC[C@H](CC#N)OC(=O)N[C@@H](C)c1cccc(NC(=O)Nc2ccc(-c3cnco3)c(OC)c2)c1` [AVN944], the TC50 cytotoxicity in the experiment with DLD1 NRF2-WT [1] and in the experiment with DLD1 NRF2-GOF [2] was more than 10 µM each time. Further, the figures for the EC50 viability in the experiment with DLD1 NRF2-WT [3] and in the experiment on DLD1 NRF2-GOF [4] were 0.169 µM and 0.112 µM, respectively. In addition, the drug sensitivity score in the experiment with DLD1 NRF2-WT [5] is 0; in the experiment with DLD1 NRF2-GOF [6], 0; with DLD1 NRF2-WT [7], 15.6; with DLD1 NRF2-GOF [8] it was 15.9.

For the compound `CCCCC(=O)OCC(=O)[C@]1(O)Cc2c(O)c3c(c(O)c2[C@@H](O[C@H]2C[C@H](NC(=O)C(F)(F)F)[C@H](O)[C@H](C)O2)C1)C(=O)c1c(OC)cccc1C3=O` [Valrubicin], the TC50 cytotoxicity in the experiment on DLD1 NRF2-WT [1] and in the experiment with DLD1 NRF2-GOF [2] was more than 5 µM in each case. Besides, the EC50 viability in the experiment on DLD1 NRF2-WT [3] was 0.547 µM; with DLD1 NRF2-GOF [4], 0.479 µM. The drug sensitivity score with DLD1 NRF2-WT [5] stood at 0; in the experiment on DLD1 NRF2-GOF [6] it was 0; in the experiment with DLD1 NRF2-WT [7], 6.8; with DLD1 NRF2-GOF [8] it was 8.1.

`CC(O)c1cc(C(=O)N[C@@H](C)Cn2ccc(-c3ccc(C#N)c(Cl)c3)n2)n[nH]1` (stereo partly drawn) [ODM-201]: the TC50 cytotoxicity in the experiment with DLD1 NRF2-WT [1] and in the experiment on DLD1 NRF2-GOF [2] was more than 2.5 µM in each case. Moreover, the EC50 viability in the experiment with DLD1 NRF2-WT [3] and in the experiment on DLD1 NRF2-GOF [4] was more than 2.5 µM throughout. The drug sensitivity score in the experiment on DLD1 NRF2-WT [5] worked out at 0; in the experiment with DLD1 NRF2-GOF [6] it was 0; with DLD1 NRF2-WT [7] it was 0.2; with DLD1 NRF2-GOF [8], 0.9.

For the compound `C[C@@]1(C(=O)Nc2ccc(F)nc2)CCCN1c1nc(Nc2cc(C3CC3)n[nH]2)c2cccn2n1`, the TC50 cytotoxicity stood at 0.326 µM with DLD1 NRF2-WT [1] and 0.319 µM in the experiment with DLD1 NRF2-GOF [2]. Besides, the EC50 viability was 0.252 µM with DLD1 NRF2-WT [3] and 0.279 µM in the experiment with DLD1 NRF2-GOF [4]. Also, the drug sensitivity score in the experiment with DLD1 NRF2-WT [5] stood at 6.3; with DLD1 NRF2-GOF [6] it was 11; in the experiment on DLD1 NRF2-WT [7], 13; in the experiment on DLD1 NRF2-GOF [8] it was 14.8.

In the case of `CCC/C=C/C=C/C(=O)O[C@H]1/C(=C/C(=O)OC)C[C@H]2C[C@H]([C@@H](C)O)OC(=O)C[C@H](O)C[C@@H]3C[C@H](OC(C)=O)C(C)(C)[C@](O)(C[C@@H]4C/C(=C/C(=O)OC)C[C@H](/C=C/C(C)(C)[C@]1(O)O2)O4)O3` [Bryostatin 1], the TC50 cytotoxicity in the experiment on DLD1 NRF2-WT [1] and in the experiment on DLD1 NRF2-GOF [2] was more than 0.1 µM each time. Also, the EC50 viability with DLD1 NRF2-WT [3] and in the experiment with DLD1 NRF2-GOF [4] was more than 0.1 µM in each case. The drug sensitivity score amounted to 0 with DLD1 NRF2-WT [5], 0 in the experiment on DLD1 NRF2-GOF [6], 0.2 in the experiment on DLD1 NRF2-WT [7] and 2.8 in the experiment on DLD1 NRF2-GOF [8].

On to `CNC(=O)c1cc(Oc2ccc(NC(=O)Nc3ccc(Cl)c(C(F)(F)F)c3)c(F)c2)ccn1` [Regorafenib], for which the TC50 cytotoxicity with DLD1 NRF2-WT [1] and in the experiment with DLD1 NRF2-GOF [2] was more than 10 µM in each case. Moreover, the EC50 viability with DLD1 NRF2-WT [3] was found to be 3.3 µM; in the experiment with DLD1 NRF2-GOF [4], 3.71 µM. The drug sensitivity score in the experiment on DLD1 NRF2-WT [5] stood at 0; with DLD1 NRF2-GOF [6], 0; in the experiment on DLD1 NRF2-WT [7] it was 3.8; in the experiment on DLD1 NRF2-GOF [8] it was 2.4.

`COc1cc(Nc2ncc(F)c(Nc3ccc4c(n3)N(COP(=O)(O)O)C(=O)C(C)(C)O4)n2)cc(OC)c1OC` [Fostamatinib]: the TC50 cytotoxicity with DLD1 NRF2-WT [1] and in the experiment on DLD1 NRF2-GOF [2] was more than 2.5 µM each time. For the same compound, the EC50 viability in the experiment on DLD1 NRF2-WT [3] amounted to 0.0385 µM; in the experiment on DLD1 NRF2-GOF [4], 0.093 µM. The drug sensitivity score turned out to be 0 in the experiment with DLD1 NRF2-WT [5], 0.2 with DLD1 NRF2-GOF [6], 6.2 with DLD1 NRF2-WT [7] and 7.4 with DLD1 NRF2-GOF [8].

For the compound `C[C@@H](Oc1ccc2[nH]nc(/C=C/c3cnn(CCO)c3)c2c1)c1c(Cl)cncc1Cl`, the TC50 cytotoxicity with DLD1 NRF2-WT [1] and with DLD1 NRF2-GOF [2] was more than 1 µM in each case. For the same compound, the EC50 viability with DLD1 NRF2-WT [3] and in the experiment on DLD1 NRF2-GOF [4] was more than 1 µM in each case. The drug sensitivity score with DLD1 NRF2-WT [5] was determined as 0; in the experiment with DLD1 NRF2-GOF [6], 0; with DLD1 NRF2-WT [7], 1.4; in the experiment on DLD1 NRF2-GOF [8], 2.

Turning to `O=C(/C=C\n1cnc(-c2cc(C(F)(F)F)cc(C(F)(F)F)c2)n1)NNc1cnccn1` [Selinexor], the TC50 cytotoxicity in the experiment with DLD1 NRF2-WT [1] and in the experiment with DLD1 NRF2-GOF [2] was more than 10 µM throughout. Moreover, the EC50 viability with DLD1 NRF2-WT [3] is 0.202 µM; in the experiment on DLD1 NRF2-GOF [4], 0.323 µM. Further, the drug sensitivity score in the experiment with DLD1 NRF2-WT [5] stood at 1.5; in the experiment on DLD1 NRF2-GOF [6], 2.5; with DLD1 NRF2-WT [7] it was 16.7; in the experiment with DLD1 NRF2-GOF [8], 15.5.

In the case of `O=c1[nH]cc(F)c(=O)[nH]1` [Fluorouracil], the TC50 cytotoxicity with DLD1 NRF2-WT [1] and in the experiment with DLD1 NRF2-GOF [2] was more than 10 µM each time. The EC50 viability was found to be 0.001 µM with DLD1 NRF2-WT [3] and 0.176 µM with DLD1 NRF2-GOF [4]. The drug sensitivity score with DLD1 NRF2-WT [5] amounted to 0; in the experiment with DLD1 NRF2-GOF [6] it was 0; in the experiment on DLD1 NRF2-WT [7], 10.3; with DLD1 NRF2-GOF [8], 7.1.

On to `O=C(O)c1ccc2c(c1)nc(Nc1cccc(Cl)c1)c1ccncc12` [Silmitasertib], for which the TC50 cytotoxicity in the experiment on DLD1 NRF2-WT [1] and in the experiment with DLD1 NRF2-GOF [2] was more than 10 µM each time. Further, the EC50 viability in the experiment on DLD1 NRF2-WT [3] amounted to 3.6 µM; in the experiment on DLD1 NRF2-GOF [4], 1.52 µM. Besides, the drug sensitivity score in the experiment with DLD1 NRF2-WT [5] stood at 0.3; in the experiment on DLD1 NRF2-GOF [6], 0; in the experiment on DLD1 NRF2-WT [7], 2.1; in the experiment with DLD1 NRF2-GOF [8] it was 2.8.

With `CC[C@@H]1CN(C(=O)NCC(F)(F)F)C[C@@H]1c1cnc2cnc3[nH]ccc3n12` [Upadacitinib], the TC50 cytotoxicity with DLD1 NRF2-WT [1] and in the experiment with DLD1 NRF2-GOF [2] was more than 10 µM in each case. Besides, the EC50 viability was more than 10 µM in the experiment with DLD1 NRF2-WT [3] and 0.0101 µM in the experiment with DLD1 NRF2-GOF [4]. Also, the drug sensitivity score amounted to 0 in the experiment with DLD1 NRF2-WT [5], 0 in the experiment with DLD1 NRF2-GOF [6], 0 in the experiment on DLD1 NRF2-WT [7] and 10.7 with DLD1 NRF2-GOF [8].

Consider `O=C(Nc1c[nH]nc1-c1nc2ccc(CN3CCOCC3)cc2[nH]1)NC1CC1` [AT9283], for which the TC50 cytotoxicity is more than 1 µM with DLD1 NRF2-WT [1] and 0.0267 µM with DLD1 NRF2-GOF [2]. Further, the EC50 viability amounted to 0.0555 µM with DLD1 NRF2-WT [3] and 0.0219 µM in the experiment with DLD1 NRF2-GOF [4]. Also, the drug sensitivity score is 2.6 in the experiment with DLD1 NRF2-WT [5], 9.8 in the experiment with DLD1 NRF2-GOF [6], 8.6 with DLD1 NRF2-WT [7] and 15.1 in the experiment with DLD1 NRF2-GOF [8].

With `CN(C)CCOc1ccc(/C(=C(/CCCl)c2ccccc2)c2ccccc2)cc1` [Toremifene], the TC50 cytotoxicity in the experiment with DLD1 NRF2-WT [1] and in the experiment on DLD1 NRF2-GOF [2] was more than 10 µM throughout. Also, the figures for the EC50 viability with DLD1 NRF2-WT [3] and in the experiment on DLD1 NRF2-GOF [4] were 4.21 µM and 2.15 µM, respectively. Also, the drug sensitivity score in the experiment with DLD1 NRF2-WT [5] turned out to be 0; in the experiment on DLD1 NRF2-GOF [6], 0; in the experiment with DLD1 NRF2-WT [7], 2.2; with DLD1 NRF2-GOF [8] it was 4.8.
